No end group written: not given here.
Tests used:
[1] = test system: adult female pigs; assay: In vivo pig cardiac ischemia (30 min LAD balloon occlusion), infarct of area at risk after five days; settings: approximately 20 μg Tat-conjugated peptide during last 10 minutes of 30 minute occlusion; five days later
Experimental: In another study in support of the invention, the ability of δV1-1 peptide to protect tissue from damage due to an ischemic or hypoxic event was evaluated by administering the peptide in vivo to adult female pigs. As detailed in Example 5, δV1-1 peptide was administered to the pigs during the last 10 minutes of a 30 minute ischemic insult. Five days later, the hearts were analyzed for tissue damage. Adult female pigs, 35-40 kg in weight, were anesthetized and a catheter was introduced through the carotid artery into the heart. Using conventional intervention cardiology techniques, a wire was placed through a catheter and into the left anterior descending artery. A balloon was run over this wire to a site of occlusion where it was then inflated to block blood flow for 30 minutes. […] From this the percent infarct per area at risk for each slice and for the entire heart was determined.

[2] = test system: Sprague-Dawley rats; assay: Rat cerebral ischemia (stroke) model, middle cerebral artery occlusion, infarct area; format: in vivo; settings: Tat-conjugated δV1-1 into carotid artery prior to ischemia and at end of 2 hour occlusion, final blood concentration 1 μM; brains 24 hrs later
Experimental: In another study performed in support of the invention, the ability of δV1-1 peptide (SEQ ID NO:4) to inhibit damage to the brain as a result of stroke was examined. In this study, described in Example 6, a rat cerebral ischemia model was used. Ischemia was induced using an intraluminal suture to occlude the ostium of the middle cerebral artery. δV1-1 conjugated to Tat peptide (SEQ ID NO:9) or the Tat peptide alone were injected into the carotid artery before and after a two hour occlusion period. The brain from each animal was harvested 24 hours later, stained, and examined.
Adult male Sprague-Dawley rats weighing between 280-320 g were used. Animals were maintained under isofluorane anesthesia during all surgical procedures. Physiological parameters were monitored and maintained in the normal range. Rectal temperature was also measured. At the completion of the experiment, the animals were euthanized with a barbiturate overdose and prepared for histological analysis.
Ischemia was induced using an occluding intraluminal suture. […]
Animals were perfused with heparinized saline and brains removed and sectioned into 2 mm thick slices. […] Areas of infarction (white) were then measured using an image analysis system previously described (Yenari, M. A. et al., 1998; Maier, C. et al., 1998).

[3] = test system: whole rat hearts; assay: Ex vivo whole hearts, peptide during reperfusion after 20 min global ischemia, functional recovery
Experimental: Another study was performed to determine if the peptides could be delivered to an intact organ to provide protection after an ischemic insult. In this study, as described in Example 4, the rat heart model described above was used and the hemodynamic parameters were measured during the 20 minutes of global ischemia and the […]. During the reperfusion only, δV1-1 was delivered at a concentration of 500 nM.
In a similar study, five pairs of rats were treated as described in Example 4, where the ex vivo hearts were subjected to 20 minutes of ischemia and 30 minutes of reperfusion. During the first 20 minutes of reperfusion, 500 nM of δV1-1 or vehicle control was administered.
Rat hearts were isolated as described in Example 3. The left ventricular pressure and its real-time derivative (dP/dt) were monitored via a latex balloon placed in the ventricular cavity and at a constant heart rate by pacing (3.3 Hz) and at a constant coronary flow (10 ml/min.). The hearts were subjected to 20 minutes of ischemia and 30 minutes of re-perfusion. During the first 20 minutes of reperfusion, 500 nM of δV1-1 or vehicle control was delivered.

[4] = test system: mouse model; assay: Safety of two injections in the mouse model; format: in vivo; settings: 1 μM final concentration
Text: Blood samples and tissue samples of lung, liver, brain, gut, kidney, etc. were collected from the animals and analyzed at a pathology lab. […] Kidney, liver, brain, and lung functions were normal and all blood analyses were also normal.

[5] = 500 nM during reperfusion after 20 minutes global ischemia

- reduction in creatine phosphokinase release compared with vehicle control ([3]; 500 nM during reperfusion after 20 minutes global ischemia, not shown): ~50%
Sequence: SFNSYELGSL (also: conjugated to Antennapedia or Tat carrier; listed as Rattus norvegicus) [δV1-1, tested conjugated to Antennapedia or Tat carrier]
- infarct area within the area at risk (heart slices) [1]: significantly reduced infarct area
- percent of infarct of the area at risk compared with untreated animals [1]: nearly two-fold lower
- brain infarct area [2]: significant reduction
- end diastolic pressure (EDP) ([3]; 500 nM during first 20 minutes of reperfusion, 5-30 minutes after reperfusion): approximately 60 mmHg
- coronary perfusion pressure (PP) [3, 5]: reduced
- elevated LVP end diastolic pressure [3, 5]: reduced
- perfusion pressure (PP) relative to hearts left untreated ([3]; after ischemia and after treatment with 500 nM δV1-1): about 75%
- adverse effect of two injections ([4]; mouse model): no adverse effect
- blood analyses ([4]; two injections): normal
- kidney, liver, brain, and lung functions ([4]; two injections): normal

Source: patent US6855693B2, “Peptides for activation and inhibition of δPKC” (The Board of Trustees of the Leland Stanford Junior …, priority 2001, dated 2005)
